{
  "source": "patent US20110200992A1",
  "about": "“Biological Compositions, Articles and Methods for Monitoring Sterilization Processes” (priority 2008, published 2011)",
  "assay_type_in_all_cases": "cell-based",
  "key": {"[1]": {"tested_on": "spores of Gb stearothermophilus", "test": "Fluorescence intensity vs. time of spore suspension with dye, with or without nutrients (Example 1)", "conditions": "Acridine Orange 6.6 μM, ex 485 nm, em 530 nm, 50° C.; for Fluorescence Intensity of Spore Suspension with Dye: no nutrients", "experimental": "Spore suspensions of Gb. stearothermophilus (also known as Bacillus stearothermophilus) were prepared by known methods as described in Example 1 of U.S. Pat. No. 5,418,167 ([…] et al.). Modifications of these methods and alternative methods known to those skilled in the art may also be used for preparing these suspensions. Representative cell-permeant dyes from the following classes: green fluorescent nucleic acid stains, red fluorescent nucleic acid stains, and Acridine Orange were tested with spores of Gb stearothermophilus. Specifically, 100 microliters of the spore suspension described above were combined with 200 microlitres of a 1:5000 dilution of the dye with Sterile Water For Irrigation (Baxter, Deerfield, Ill.) or with nutrients glucose, fructose, and potassium chloride in water (1 mg/ml, 1 mg/ml, and 3.3 mgs/ml, respectively), 0.2 M valine, 0.04 M isoleucine, 0.2 M methionine, 4 mg/ml inosine, and 0.4 M alanine. The fluorescence intensity of each of the resulting suspensions was monitored at an incubation temperature of 50° C., using the following dyes at the concentrations and excitation and emission wavelengths indicated below: SYTO 24: 1.0 μM (micromolar); excitation at 485 nm, emission at 530 nm; Acridine Orange: 6.6 μM; excitation at 485 nm, emission at 530 nm; SYTO 64: 1.0 μM; excitation at 530 nm, emission at 620 nm. The dyes are available from Invitrogen, (Carlsbad, Calif.). Fluorescence was monitored in a Biotek FL600 fluorimeter or Biotek Synergy 4 plate reader (Biotek, Winooski, Vt.)."}, "[2]": {"tested_on": "Gb. stearothermophilus spores on a polypropylene carrier", "test": "Change in fluorescence of biological indicators after lethal and sub-lethal sterilization cycles (Example 4)", "conditions": "485/530 nm, 1×E5 spores, 1:5000 dye, incubated 50° C.", "experimental": "Eighty biological indicators (BIs) were prepared by coating a suspension of Gb. stearothermophilus spores at a concentration of 1×E5 on a polypropylene carrier. Following drying at 37° C. for 20 min, the BIs were exposed to commonly used sterilization conditions as described below in Tables 4a, 4b, and 4c. Following sterilization the BIs were activated with a medium, exposed to the same sterilization conditions as the spores and containing of a 1:5000 dilution of Acridine Orange along with glucose, fructose, and potassium chloride in water (1 mg/ml, 1 mg/ml, and 3.3 mgs/ml, respectively), 0.02 M alanine, 0.01 M valine, 0.002 M isoleucine, 0.2 mg/ml inosine, and a small amount of Bromo Cresol Purple. The combination of the medium with the spores on the carrier, subjected to lethal and sub-lethal sterilization processes shown in Tables 4a-4c, was incubated at 50° C. for 60 min, and fluorescence intensity readings were taken at 30 and 60 min using excitation at 485 nm and emission at 530 nm."}, "[3]": {"tested_on": "Gb. stearothermophilus spores", "test": "Fluorescence with live and dead (sterilized) spores, dye and nutrient medium treated with the same sterilizing conditions (Example 3)", "experimental": "A glass vial containing 1 mL of 1×E7 Gb. stearothermophilus spore suspension described above and a glass vial containing 1 mL of medium containing a cell-permeant fluorescent dye as described in Example 1 were placed in a sterilizer and run in a 15 min 121° C. (250° F.) vacuum assisted cycle in a AMSCO Scientific SG-120 Eagle/Century Series steam sterilizer (Steris, Mentor Ohio), and 100 microlitres of the resulting autoclaved spore suspensions and medium were subsequently tested. Un-autoclaved spore suspensions that were subjected to a heat shock treatment at 80° C. for 10 min were tested simultaneously as a control. Spore suspensions (100 microlitres) were combined with 200 microlitres of medium, consisting of Acridine orange dye and nutrients as described in Example 1, that was run through the same steam sterilization cycle as the spores, and each resulting mixture was added to a well of a plate. The plate was subsequently placed in a preheated plate reader (Synergy 4, BioTek, Winooski, Vt.) at 50° C. and incubated for 180 min, during which fluorescence intensity readings using excitation and emission wavelengths of 520 and 580, respectively were taken for at total of 19 readings."}, "[4]": {"conditions": "1 min in 132° C. (270° F.) Gravity Cycle, AMSCO EAGLE Model 2013 Steam Sterilizer"}, "[5]": {"conditions": "1 min in 132° C. (270° F.) Vacuum Assisted Cycle, Joslyn BIER Vessel"}, "[6]": {"conditions": "3 min in 132° C. (270° F.) Gravity Cycle, AMSCO EAGLE Model 2013 Steam Sterilizer"}, "[7]": {"conditions": "3 min in 132° C. (270° F.) Vacuum Assisted Cycle, Joslyn BIER Vessel"}, "[8]": {"conditions": "5 min in 121° C. (250° F.) Vacuum Assisted Cycle, Joslyn BIER Vessel"}, "[9]": {"conditions": "15 min in 121° C. (250° F.) Vacuum Assisted Cycle, Joslyn BIER Vessel"}},
  "data": [
    {"smiles": "CN(C)c1ccc2cc3ccc(N(C)C)cc3nc2c1", "note": "[Acridine Orange]", "values": [
      {"measurement": "Fluorescence Intensity of Spore Suspension with Dye", "setting": "[1]; 0 min", "result": 2005},
      {"measurement": "Fluorescence Intensity of Spore Suspension with Dye", "setting": "[1]; 10 min", "result": 2665},
      {"measurement": "Fluorescence Intensity of Spore Suspension with Dye", "setting": "[1]; 20 min", "result": 4069},
      {"measurement": "Fluorescence Intensity of Spore Suspension with Dye", "setting": "[1]; 30 min", "result": 5655},
      {"measurement": "Fluorescence Intensity of Spore Suspension with Dye", "setting": "[1]; 40 min", "result": 7091},
      {"measurement": "Fluorescence Intensity of Spore Suspension with Dye and Nutrients", "setting": "[1]; 0 min", "result": 2687},
      {"measurement": "Fluorescence Intensity of Spore Suspension with Dye and Nutrients", "setting": "[1]; 10 min", "result": 2777},
      {"measurement": "Fluorescence Intensity of Spore Suspension with Dye and Nutrients", "setting": "[1]; 20 min", "result": 4241},
      {"measurement": "Fluorescence Intensity of Spore Suspension with Dye and Nutrients", "setting": "[1]; 30 min", "result": 7842},
      {"measurement": "Fluorescence Intensity of Spore Suspension with Dye and Nutrients", "setting": "[1]; 40 min", "result": 11708},
      {"measurement": "Average Change in Fluorescence at 30 min", "setting": "[2]; [4]", "result": 1462},
      {"measurement": "Average Change in Fluorescence at 60 min", "setting": "[2]; [4]", "result": 1808},
      {"measurement": "Average Change in Fluorescence at 30 min", "setting": "[2]; [5]", "result": 2607},
      {"measurement": "Average Change in Fluorescence at 60 min", "setting": "[2]; [5]", "result": 2762},
      {"measurement": "Average Change in Fluorescence at 30 min", "setting": "[2]; [6]", "result": 201},
      {"measurement": "Average Change in Fluorescence at 60 min", "setting": "[2]; [6]", "result": 22},
      {"measurement": "Average Change in Fluorescence at 30 min", "setting": "[2]; [7]", "result": 279},
      {"measurement": "Average Change in Fluorescence at 60 min", "setting": "[2]; [7]", "result": 386},
      {"measurement": "Average Change in Fluorescence at 30 min", "setting": "[2]; [8]", "result": 2774},
      {"measurement": "Average Change in Fluorescence at 60 min", "setting": "[2]; [8]", "result": 3347},
      {"measurement": "Average Change in Fluorescence at 30 min", "setting": "[2]; [9]", "result": 383},
      {"measurement": "Average Change in Fluorescence at 60 min", "setting": "[2]; [9]", "result": 353},
      {"measurement": "Fluorescence intensity (normalized)", "setting": "[3]; Autoclaved (dead) Spores, E6, ex 520/em 580, 50° C., 0 min", "result": 0},
      {"measurement": "Fluorescence intensity (normalized)", "setting": "[3]; Autoclaved (dead) Spores, E6, ex 520/em 580, 50° C., 30 min", "result": "−1468.25"},
      {"measurement": "Fluorescence intensity (normalized)", "setting": "[3]; Autoclaved (dead) Spores, E6, ex 520/em 580, 50° C., 60 min", "result": "−103.5"},
      {"measurement": "Fluorescence intensity (normalized)", "setting": "[3]; Autoclaved (dead) Spores, E6, ex 520/em 580, 50° C., 90 min", "result": "−9.25"},
      {"measurement": "Fluorescence intensity (normalized)", "setting": "[3]; Autoclaved (dead) Spores, E6, ex 520/em 580, 50° C., 120 min", "result": "−49.25"},
      {"measurement": "Fluorescence intensity (normalized)", "setting": "[3]; Autoclaved (dead) Spores, E6, ex 520/em 580, 50° C., 180 min", "result": "−307"},
      {"measurement": "Fluorescence intensity (normalized)", "setting": "[3]; Autoclaved Spores, 0, ex 520/em 580, 50° C., 0 min", "result": 0},
      {"measurement": "Fluorescence intensity (normalized)", "setting": "[3]; Autoclaved Spores, 0, ex 520/em 580, 50° C., 30 min", "result": 375.25},
      {"measurement": "Fluorescence intensity (normalized)", "setting": "[3]; Autoclaved Spores, 0, ex 520/em 580, 50° C., 60 min", "result": 1347.25},
      {"measurement": "Fluorescence intensity (normalized)", "setting": "[3]; Autoclaved Spores, 0, ex 520/em 580, 50° C., 90 min", "result": 1533.75},
      {"measurement": "Fluorescence intensity (normalized)", "setting": "[3]; Autoclaved Spores, 0, ex 520/em 580, 50° C., 120 min", "result": 1491.25},
      {"measurement": "Fluorescence intensity (normalized)", "setting": "[3]; Autoclaved Spores, 0, ex 520/em 580, 50° C., 180 min", "result": 1427.75},
      {"measurement": "Fluorescence intensity (normalized)", "setting": "[3]; Live Spores (heat shocked), E6, autoclaved dye + nutrient medium, ex 520/em 580, 50° C., 0 min", "result": 0},
      {"measurement": "Fluorescence intensity (normalized)", "setting": "[3]; Live Spores (heat shocked), E6, autoclaved dye + nutrient medium, ex 520/em 580, 50° C., 30 min", "result": 6211.5},
      {"measurement": "Fluorescence intensity (normalized)", "setting": "[3]; Live Spores (heat shocked), E6, autoclaved dye + nutrient medium, ex 520/em 580, 50° C., 60 min", "result": 8652.5},
      {"measurement": "Fluorescence intensity (normalized)", "setting": "[3]; Live Spores (heat shocked), E6, autoclaved dye + nutrient medium, ex 520/em 580, 50° C., 90 min", "result": 9955.5},
      {"measurement": "Fluorescence intensity (normalized)", "setting": "[3]; Live Spores (heat shocked), E6, autoclaved dye + nutrient medium, ex 520/em 580, 50° C., 120 min", "result": 10376.5},
      {"measurement": "Fluorescence intensity (normalized)", "setting": "[3]; Live Spores (heat shocked), E6, autoclaved dye + nutrient medium, ex 520/em 580, 50° C., 180 min", "result": 10694.25},
      {"measurement": "Fluorescence intensity (normalized)", "setting": "[3]; Live Spores, 0, autoclaved dye + nutrient medium, ex 520/em 580, 50° C., 0 min", "result": 0},
      {"measurement": "Fluorescence intensity (normalized)", "setting": "[3]; Live Spores, 0, autoclaved dye + nutrient medium, ex 520/em 580, 50° C., 30 min", "result": 522.25},
      {"measurement": "Fluorescence intensity (normalized)", "setting": "[3]; Live Spores, 0, autoclaved dye + nutrient medium, ex 520/em 580, 50° C., 60 min", "result": 588.75},
      {"measurement": "Fluorescence intensity (normalized)", "setting": "[3]; Live Spores, 0, autoclaved dye + nutrient medium, ex 520/em 580, 50° C., 90 min", "result": 779.75},
      {"measurement": "Fluorescence intensity (normalized)", "setting": "[3]; Live Spores, 0, autoclaved dye + nutrient medium, ex 520/em 580, 50° C., 120 min", "result": 870},
      {"measurement": "Fluorescence intensity (normalized)", "setting": "[3]; Live Spores, 0, autoclaved dye + nutrient medium, ex 520/em 580, 50° C., 180 min", "result": 886.5}
    ]}
  ]
}
